Measurements taken from ChEMBL document CHEMBL4043212, “Design, synthesis and biological evaluation of 1,3-diphenylbenzo[f][1,7]naphthyrdines” (2017).

Experiments:
NUGC-3 = assay: Cytotoxicity against human NUGC3 cells assessed as inhibition of cell growth incubated for 72 hrs by SRB assay; format: functional
[1] = biological target: DNA topoisomerase 2-alpha (Homo sapiens) (UniProt P11388); assay: Inhibition of human topoisomerase-2 alpha assessed as reduction in conversion of super coiled plasmid DNA to relaxed DNA at 100 uM using supercoiled pBR322 DNA as substrate after 30 mins by ethidium bromide staining based agarose gel electrophoresis method relative to control
PC-3 = assay: Cytotoxicity against human PC3 cells assessed as inhibition of cell growth incubated for 72 hrs by SRB assay; format: functional
ACHN = assay: Cytotoxicity against human ACHN cells assessed as inhibition of cell growth incubated for 72 hrs by SRB assay; format: functional
MDA-MB-231 = assay: Cytotoxicity against human MDA-MB-231 cells assessed as inhibition of cell growth incubated for 72 hrs by SRB assay; format: functional
NCI-H23 = assay: Cytotoxicity against human NCI-H23 cells assessed as inhibition of cell growth incubated for 72 hrs by SRB assay; format: functional
HCT-15 = assay: Cytotoxicity against human HCT15 cells assessed as inhibition of cell growth incubated for 72 hrs by SRB assay; format: functional

DNA topoisomerase 2-alpha (Homo sapiens), sequence (P11388 whole entry): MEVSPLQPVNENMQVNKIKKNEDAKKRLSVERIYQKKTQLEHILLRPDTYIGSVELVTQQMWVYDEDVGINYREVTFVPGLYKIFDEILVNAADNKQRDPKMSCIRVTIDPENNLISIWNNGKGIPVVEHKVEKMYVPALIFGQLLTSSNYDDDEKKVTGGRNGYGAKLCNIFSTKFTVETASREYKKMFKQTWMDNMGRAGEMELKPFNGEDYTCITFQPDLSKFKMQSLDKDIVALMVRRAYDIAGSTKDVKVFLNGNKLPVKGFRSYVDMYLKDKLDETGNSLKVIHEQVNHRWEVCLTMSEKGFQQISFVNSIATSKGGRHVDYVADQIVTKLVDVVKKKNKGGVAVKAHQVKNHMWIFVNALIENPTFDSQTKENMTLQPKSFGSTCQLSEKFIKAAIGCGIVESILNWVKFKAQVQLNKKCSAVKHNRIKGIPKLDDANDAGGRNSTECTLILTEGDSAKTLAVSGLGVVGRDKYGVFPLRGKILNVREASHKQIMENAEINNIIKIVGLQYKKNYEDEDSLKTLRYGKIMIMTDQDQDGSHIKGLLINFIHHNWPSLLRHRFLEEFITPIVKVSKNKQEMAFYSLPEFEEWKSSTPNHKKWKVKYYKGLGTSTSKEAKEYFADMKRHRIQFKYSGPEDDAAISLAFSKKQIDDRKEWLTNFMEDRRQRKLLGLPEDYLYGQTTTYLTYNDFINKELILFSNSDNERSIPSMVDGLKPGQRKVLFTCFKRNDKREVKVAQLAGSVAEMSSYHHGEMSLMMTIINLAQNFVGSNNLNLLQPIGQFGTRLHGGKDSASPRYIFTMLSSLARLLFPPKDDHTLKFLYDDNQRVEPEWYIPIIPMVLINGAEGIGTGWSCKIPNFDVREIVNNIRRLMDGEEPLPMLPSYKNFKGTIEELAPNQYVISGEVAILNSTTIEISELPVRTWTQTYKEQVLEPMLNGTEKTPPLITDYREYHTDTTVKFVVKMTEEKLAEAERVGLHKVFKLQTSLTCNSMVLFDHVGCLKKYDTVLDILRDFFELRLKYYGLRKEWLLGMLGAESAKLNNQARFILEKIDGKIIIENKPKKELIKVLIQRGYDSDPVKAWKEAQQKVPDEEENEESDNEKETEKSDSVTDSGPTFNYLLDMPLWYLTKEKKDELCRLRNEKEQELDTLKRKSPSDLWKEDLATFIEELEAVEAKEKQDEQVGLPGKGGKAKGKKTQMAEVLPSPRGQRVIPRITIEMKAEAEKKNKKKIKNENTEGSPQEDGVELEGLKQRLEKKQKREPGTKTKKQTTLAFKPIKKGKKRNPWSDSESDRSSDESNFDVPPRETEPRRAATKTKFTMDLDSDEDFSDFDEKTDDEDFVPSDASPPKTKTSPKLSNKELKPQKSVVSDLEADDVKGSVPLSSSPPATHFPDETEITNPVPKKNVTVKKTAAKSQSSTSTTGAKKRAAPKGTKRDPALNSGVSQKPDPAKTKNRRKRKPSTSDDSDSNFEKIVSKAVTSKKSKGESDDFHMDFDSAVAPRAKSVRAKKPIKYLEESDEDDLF

Compound COc1ccc(-c2cc(-c3cccc(C#N)c3)nc3cnc4ccccc4c23)cc1 has a GI50 (NUGC-3; Homo sapiens, NUGC-3, 72 h) of 2.03 µM, an inhibition [1] of 0.2% and a GI50 (PC-3; Homo sapiens, PC-3, 72 h) of 3.15 µM. It also gave a GI50 (ACHN; Homo sapiens, ACHN, 72 h) of 3.86 µM, a GI50 (MDA-MB-231; Homo sapiens, MDA-MB-231, 72 h) of 1.79 µM and a GI50 (NCI-H23; Homo sapiens, NCI-H23, 72 h) of 1.89 µM. For the same compound, the GI50 (HCT-15; Homo sapiens, HCT-15, 72 h) was 1.79 µM.

COc1ccc(-c2cc(-c3ccc([N+](=O)[O-])cc3)nc3cnc4ccccc4c23)cc1 [listing 1 of 2 here] was tested, and the GI50 (NUGC-3) was > 10 µM, the GI50 (PC-3) was > 10 µM and the GI50 (ACHN) was > 10 µM. For the same compound, the GI50 (MDA-MB-231) was > 10 µM, the GI50 (NCI-H23) was > 10 µM and the GI50 (HCT-15) was > 10 µM.

Work on COc1ccc(-c2cc(-c3ccc([N+](=O)[O-])cc3)nc3cnc4ccccc4c23)cc1 [listing 2 of 2 here] yielded a GI50 (NUGC-3) of 2.87 µM, a GI50 (PC-3) of 3.59 µM and a GI50 (ACHN) of 3.92 µM. The GI50 (MDA-MB-231) was 3.49 µM, the GI50 (NCI-H23) was 2.43 µM and the GI50 (HCT-15) was 4.37 µM.

COc1ccc(-c2cc(-c3ccc(OC)c4ccccc34)nc3cnc4ccccc4c23)cc1 was tested, and the GI50 (NUGC-3; Homo sapiens, NUGC-3, 72 h) was > 10 µM, the GI50 (PC-3; Homo sapiens, PC-3, 72 h) was > 10 µM and the GI50 (ACHN; Homo sapiens, ACHN, 72 h) was > 10 µM. For the same compound, the GI50 (MDA-MB-231; Homo sapiens, MDA-MB-231, 72 h) was > 10 µM, the GI50 (NCI-H23; Homo sapiens, NCI-H23, 72 h) was > 10 µM and the GI50 (HCT-15; Homo sapiens, HCT-15, 72 h) was > 10 µM.

With COc1ccc(-c2cc(-c3ccccc3[N+](=O)[O-])nc3cnc4ccccc4c23)cc1 the GI50 (NUGC-3; Homo sapiens, NUGC-3, 72 h) was > 10 µM, the GI50 (PC-3; Homo sapiens, PC-3, 72 h) was > 10 µM and the GI50 (ACHN; Homo sapiens, ACHN, 72 h) was > 10 µM. For the same compound, the GI50 (MDA-MB-231; Homo sapiens, MDA-MB-231, 72 h) was > 10 µM, the GI50 (NCI-H23; Homo sapiens, NCI-H23, 72 h) was > 10 µM and the GI50 (HCT-15; Homo sapiens, HCT-15, 72 h) was > 10 µM.

Work on COc1ccc(-c2cc(-c3ccc(Cl)cc3)nc3cnc4ccccc4c23)cc1 yielded a GI50 (NUGC-3; Homo sapiens, NUGC-3, 72 h) of 2.17 µM, an inhibition [1] of 3% and a GI50 (PC-3; Homo sapiens, PC-3, 72 h) of 1.53 µM. It also gave a GI50 (ACHN; Homo sapiens, ACHN, 72 h) of 1.69 µM, a GI50 (MDA-MB-231; Homo sapiens, MDA-MB-231, 72 h) of 2.94 µM and a GI50 (NCI-H23; Homo sapiens, NCI-H23, 72 h) of 1.7 µM. For the same compound, the GI50 (HCT-15; Homo sapiens, HCT-15, 72 h) was 4.82 µM.

COc1ccc(-c2cc(-c3ccccc3)nc3cnc4ccccc4c23)cc1 was tested, and the GI50 (NUGC-3; Homo sapiens, NUGC-3, 72 h) was 5.83 µM, the GI50 (PC-3; Homo sapiens, PC-3, 72 h) was 3.07 µM and the GI50 (ACHN; Homo sapiens, ACHN, 72 h) was 2.13 µM. It also gave a GI50 (MDA-MB-231; Homo sapiens, MDA-MB-231, 72 h) of 7.28 µM, a GI50 (NCI-H23; Homo sapiens, NCI-H23, 72 h) of 4.02 µM and a GI50 (HCT-15; Homo sapiens, HCT-15, 72 h) of 4.38 µM.

For COc1ccc(-c2cc(-c3ccc4ccccc4c3)nc3cnc4ccccc4c23)cc1, the GI50 (NUGC-3; Homo sapiens, NUGC-3, 72 h) was > 10 µM, the GI50 (PC-3; Homo sapiens, PC-3, 72 h) was > 10 µM and the GI50 (ACHN; Homo sapiens, ACHN, 72 h) was > 10 µM. The GI50 (MDA-MB-231; Homo sapiens, MDA-MB-231, 72 h) was > 10 µM, the GI50 (NCI-H23; Homo sapiens, NCI-H23, 72 h) was > 10 µM and the GI50 (HCT-15; Homo sapiens, HCT-15, 72 h) was > 10 µM.

Compound COc1ccc(-c2cc(-c3cccc4ccccc34)nc3cnc4ccccc4c23)cc1 has a GI50 (NUGC-3; Homo sapiens, NUGC-3, 72 h) of 2.16 µM, a GI50 (PC-3) of 3.38 µM and a GI50 (ACHN) of 5.36 µM. It also gave a GI50 (MDA-MB-231; Homo sapiens, MDA-MB-231, 72 h) of 2.81 µM, a GI50 (NCI-H23; Homo sapiens, NCI-H23, 72 h) of 1.65 µM and a GI50 (HCT-15; Homo sapiens, HCT-15, 72 h) of 2.72 µM.

In the case of COc1ccc(-c2cc(-c3ccc(C(F)(F)F)cc3)nc3cnc4ccccc4c23)cc1, the GI50 (NUGC-3; Homo sapiens, NUGC-3, 72 h) is reported as > 10 µM, the GI50 (PC-3; Homo sapiens, PC-3, 72 h) is reported as > 10 µM and the GI50 (ACHN; Homo sapiens, ACHN, 72 h) is reported as > 10 µM. For the same compound, the GI50 (MDA-MB-231; Homo sapiens, MDA-MB-231, 72 h) was > 10 µM, the GI50 (NCI-H23; Homo sapiens, NCI-H23, 72 h) was > 10 µM and the GI50 (HCT-15; Homo sapiens, HCT-15, 72 h) was > 10 µM.

In the case of COc1ccc(-c2cc(-c3cccs3)nc3cnc4ccccc4c23)cc1, the GI50 (NUGC-3; Homo sapiens, NUGC-3, 72 h) is reported as 2 µM, the GI50 (PC-3; Homo sapiens, PC-3, 72 h) is reported as 6.88 µM and the GI50 (ACHN; Homo sapiens, ACHN, 72 h) is reported as 5.65 µM. For the same compound, the GI50 (MDA-MB-231; Homo sapiens, MDA-MB-231, 72 h) was 7.69 µM, the GI50 (NCI-H23; Homo sapiens, NCI-H23, 72 h) was 3.3 µM and the GI50 (HCT-15; Homo sapiens, HCT-15, 72 h) was 7.06 µM.
